Source: patent publication US12391686B2, “Compounds and uses thereof” (Foghorn Therapeutics Inc., priority 2019, dated 2025)

Target: T1, Nanoluciferase-BRD9 fusion protein (3×FLAG-NLuc-BRD9) in SYO-1 cells (Homo sapiens, UniProt Q9H8M2)
T1 construct: expressed in transfected cells; host or cells: SYO-1
T1 sequence (Q9H8M2 1-597): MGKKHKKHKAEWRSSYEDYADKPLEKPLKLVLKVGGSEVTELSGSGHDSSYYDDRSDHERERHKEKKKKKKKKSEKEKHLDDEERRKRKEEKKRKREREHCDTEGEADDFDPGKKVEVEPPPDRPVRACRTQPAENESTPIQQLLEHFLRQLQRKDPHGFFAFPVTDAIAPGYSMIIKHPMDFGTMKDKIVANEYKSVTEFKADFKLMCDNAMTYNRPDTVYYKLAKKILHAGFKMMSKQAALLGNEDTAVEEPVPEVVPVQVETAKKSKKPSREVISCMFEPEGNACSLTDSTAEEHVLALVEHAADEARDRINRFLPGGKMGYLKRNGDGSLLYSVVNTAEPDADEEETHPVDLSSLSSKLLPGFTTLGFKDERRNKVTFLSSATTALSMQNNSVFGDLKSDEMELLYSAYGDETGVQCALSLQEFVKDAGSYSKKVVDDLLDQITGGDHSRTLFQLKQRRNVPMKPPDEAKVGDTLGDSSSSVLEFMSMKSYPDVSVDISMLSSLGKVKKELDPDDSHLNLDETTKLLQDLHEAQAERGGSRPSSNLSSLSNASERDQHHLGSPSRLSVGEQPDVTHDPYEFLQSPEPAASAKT
Experiment: SYO1 BRD9 NanoLuc Degradation Assay
Assay type: cell-based
Conditions: Table 6C; SYO-1 cells expressing 3×FLAG-NLuc-BRD9, 6 hours incubation, 1 μM top dose; read-out: SYO1 BRD9-NanoLuc degradation IC50
In short: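 Stable 3×FLAG-NLuc-BRD9 SYO-1 line, 8000 cells/well, dosed day 1 with 10-point 3-fold dilutions (1 μM final top, duplicates) for 6 h. NanoLuc bioluminescence read with Nano-Glo; % inhibition relative to DMSO (high) and 1 μM reference BRD9 degrader (low) controls.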

Compound	DC50 [nM]
COc1cc(-c2cn(C)c(=O)c3cnc(N(C)C)cc23)cc(OC)c1CN1CCN(c2cnn(C3CCC(=O)NC3=O)c2)CC1 (stereo not drawn) [Compound D270]	10 to 100
COc1cc2c(-c3cc(OC)c(CN4CCN(c5cccc(OC6CCC(=O)NC6=O)c5)CC4)c(OC)c3)cn(C)c(=O)c2cn1 (stereo not drawn) [Compound D282]	10 to 100
COc1cc(-c2nn(C)c(=O)c3cnc(N4CCC4)cc23)cc(OC)c1CN1CCC(CN2CCC3(CC2)CC(Oc2ccc4c(c2)C(=O)N(C2CCC(=O)NC2=O)C4)C3)CC1 (stereo not drawn) [Compound D283]	100 to 1000
COc1cc(-c2cn(C)c(=O)c3ccc(N(C)C)cc23)cc(OC)c1CN1CC(CN2CCC3(CC2)CN(c2ccc4c(c2)C(=O)N(C2CCC(=O)NC2=O)C4)C3)C1 (stereo not drawn) [Compound D285]	≥ 1000
COc1cc(-c2cn(C)c(=O)c3cnc(N(C)C)cc23)cc(OC)c1CCN1CCC(CN2CCC3(CC2)CC(Oc2ccc4c(c2)C(=O)N(C2CCC(=O)NC2=O)C4)C3)CC1 (stereo not drawn) [Compound D298]	< 10
COc1cc(-c2cn(C)c(=O)c3cnc(C4CC4)cc23)cc(OC)c1CN1CCN(CCC2CCN(c3ccc4c(c3)C(=O)N(C3CCC(=O)NC3=O)C4=O)CC2)CC1 (stereo not drawn) [Compound D299]	< 10
COc1cc(-c2cn(C)c(=O)c3cnc(C4CC4)cc23)cc(OC)c1CN1CC(Oc2ccc3c(c2)C(=O)N(C2CCC(=O)NC2=O)C3)C1 (stereo not drawn) [Compound D300]	< 10
COc1cc(-c2cn(C)c(=O)c3cnc(C4CC4)cc23)cc(OC)c1CN1CCC(CN2CCC3(CC2)CC(Oc2ccc4c(c2)C(=O)N(C2CCC(=O)NC2=O)C4=O)C3)CC1 (stereo not drawn) [Compound D301]	< 10
COc1cc(-c2cn(C)c(=O)c3cnc(C4CC4)cc23)cc(OC)c1CN1CCC(CN2CCC3(CC2)CC(Oc2ccc4c(c2)C(=O)N(C2CCC(=O)NC2=O)C4)C3)CC1 (stereo not drawn) [Compound D302]	< 10
COc1cc(-c2cn(C)c(=O)c3cnc(C4CC4)cc23)cc(OC)c1CN1CC(CN2CCC3(CC2)CN(c2ccc4c(c2)C(=O)N(C2CCC(=O)NC2=O)C4=O)C3)C1 (stereo not drawn) [Compound D303]	< 10
COc1cc(-c2cn(C)c(=O)c3cnc(C4CC4)cc23)cc(OC)c1CN1CCC(CCN2CCN(c3ccc4c(c3)C(=O)N(C3CCC(=O)NC3=O)C4=O)CC2)CC1 (stereo not drawn) [Compound D304]	< 10
COc1cc(-c2cn(C)c(=O)c3cnc(C4CC4)cc23)cc(OC)c1CN1CCC(CCN2CCN(c3ccc4c(c3)C(=O)N(C3CCC(=O)NC3=O)C4)CC2)CC1 (stereo not drawn) [Compound D305]	< 10
[2H]C([2H])([2H])n1cc(-c2cc(OC)c(CN3CC(CN4CCC5(CC4)CN(c4ccc6c(c4)C(=O)N(C4CCC(=O)NC4=O)C6=O)C5)C3)c(OC)c2)c2cc(C3CC3)ncc2c1=O (stereo not drawn) [Compound D306]	< 10
[2H]C([2H])([2H])n1cc(-c2cc(OC)c(CN3CCC(CN4CCC5(CC4)CC(Oc4ccc6c(c4)C(=O)N(C4CCC(=O)NC4=O)C6=O)C5)CC3)c(OC)c2)c2cc(C3CC3)ncc2c1=O (stereo not drawn) [Compound D307]	< 10
COc1cc(-c2cn(C)c(=O)c3cnc(C4COC4)cc23)cc(OC)c1CN1CCN(CCC2CCN(c3ccc4c(c3)C(=O)N(C3CCC(=O)NC3=O)C4=O)CC2)CC1 (stereo not drawn) [Compound D308]	< 10
COc1cc(-c2cn(C)c(=O)c3cnc(C(F)(F)F)cc23)cc(OC)c1CN1CCN(CCC2CCN(c3ccc4c(c3)CN(C3CCC(=O)NC3=O)C4=O)CC2)CC1 (stereo not drawn) [Compound D309]	< 10
COc1cc(-c2cn(C)c(=O)c3cnc(N4CCC4)cc23)cc(OC)c1CN1CCC2(CC1)CN(c1ccc3c(c1)CN(C1CCC(=O)NC1=O)C3=O)C2 (stereo not drawn) [Compound D310]	< 10
COc1cc(-c2cn(C)c(=O)c3cnc(N4CCC4)cc23)cc(OC)c1CN1CC(CN2CCC3(CC2)CN(c2ccc4c(c2)C(=O)N(C2CCC(=O)NC2=O)C4)C3)C1 (stereo not drawn) [Compound D311]	< 10
COc1cc(-c2cn(C)c(=O)c3cnc(N4CCC4)cc23)cc(OC)c1CN1CCC(c2ccc3c(c2)CN(C2CCC(=O)NC2=O)C3=O)CC1 (stereo not drawn) [Compound D312]	< 10
COc1cc(-c2cn(C)c(=O)c3cnc(N4CCC4)cc23)cc(OC)c1CN1CCC(c2ccc3c(c2)C(=O)N(C2CCC(=O)NC2=O)C3)CC1 (stereo not drawn) [Compound D313]	< 10
COc1cc(-c2cn(C)c(=O)c3cnc(N4CCOCC4)cc23)cc(OC)c1CN1CC(Oc2ccc3c(c2)CN(C2CCC(=O)NC2=O)C3=O)C1 (stereo not drawn) [Compound D314]	< 10
COc1cc(-c2cn(C)c(=O)c3cnc(C(C)(C)CO)cc23)cc(OC)c1CN1CCC(CN2CCC3(CC2)CC(Oc2ccc4c(c2)CN(C2CCC(=O)NC2=O)C4=O)C3)CC1 (stereo not drawn) [Compound D315]	< 10
COc1cc2c(-c3cc(OC)c(CN4CC(CN5CCC6(CC5)CN(c5ccc7c(c5)C(=O)N(C5CCC(=O)NC5=O)C7)C6)C4)c(OC)c3)cn(C)c(=O)c2cn1 (stereo not drawn) [Compound D316]	< 10

Further lines, results first:

DC50 [nM]	Compound
< 10	COc1cc(-c2cn(C)c(=O)c3cnc(C4CC4)cc23)cc(OC)c1CN1CC(C#Cc2ccc3c(c2)CN(C2CCC(=O)NC2=O)C3=O)C1 (stereo not drawn) [Compound D271]
< 10	COc1cc(-c2cn(C)c(=O)c3cnc(C4CC4)cc23)cc(OC)c1CN1CCC(C#Cc2ccc3c(c2)C(=O)N(C2CCC(=O)NC2=O)C3=O)CC1 (stereo not drawn) [Compound D272]
< 10	COc1cc(-c2cn(C)c(=O)c3cnc(N(C)C)cc23)cc(OC)c1CN1CCC(C#Cc2ccc3c(c2)C(=O)N(C2CCC(=O)NC2=O)C3=O)CC1 (stereo not drawn) [Compound D273]
< 10	COc1cc(-c2cn(C)c(=O)c3cnc(N(C)C)cc23)cc(OC)c1-c1ccc2c(c1)C(=O)N(C1CCC(=O)NC1=O)C2 (stereo not drawn) [Compound D274]
< 10	COc1cc(-c2cn(C)c(=O)c3cnc(C4CC4)cc23)cc(OC)c1CN1CC(C#Cc2ccc3c(c2)C(=O)N(C2CCC(=O)NC2=O)C3=O)C1 (stereo not drawn) [Compound D275]
< 10	[2H]C([2H])([2H])n1cc(-c2cc(OC)c(CN3[C@H](C)CN(c4ccc5c(c4)C(=O)N(C4CCC(=O)NC4=O)C5)C[C@H]3C)c(OC)c2)c2cc(N(C)C)ncc2c1=O (stereo partly drawn) [Compound D276]
< 10	COc1cc(-c2cn(C)c(=O)c3cnc(N(C)C)cc23)cc(OC)c1CN(C)c1ccc2c(c1)CN(C1CCC(=O)NC1=O)C2=O (stereo not drawn) [Compound D277]
< 10	COc1cc(-c2cn(C)c(=O)c3cnc(N4CC(F)(F)C4)cc23)cc(OC)c1CN1CCN(c2ccc3c(c2)C(=O)N(C2CCC(=O)NC2=O)C3)CC1(C)C (stereo not drawn) [Compound D278]
< 10	COc1cc(N(C)C2CCN(c3ccc4c(c3)C(=O)N(C3CCC(=O)NC3=O)C4)CC2)c(OC)cc1-c1cn(C)c(=O)c2cnc(N(C)C)cc12 (stereo not drawn) [Compound D279]
< 10	COc1cc(-c2cn(C)c(=O)c3cnc(N(C)C)cc23)cc(OC)c1CC1CCN(c2ccc3c(c2)C(=O)N(C2CCC(=O)NC2=O)C3)CC1 (stereo not drawn) [Compound D280]
< 10	COc1cc2c(-c3cc(OC)c(CN4[C@H](C)CN(c5ccc6c(c5)C(=O)N(C5CCC(=O)NC5=O)C6)C[C@H]4C)c(OC)c3)cn(C)c(=O)c2cn1 (stereo partly drawn) [Compound D281]
< 10	COc1cc(-c2cn(C)c(=O)c3cnc(N4CCC4)nc23)cc(OC)c1CN1CCC(CN2CCC3(CC2)CC(Oc2ccc4c(c2)C(=O)N(C2CCC(=O)NC2=O)C4)C3)CC1 (stereo not drawn) [Compound D286]
< 10	COc1cc(-c2cn(C)c(=O)c3cc(F)ccc23)cc(OC)c1CN1CCC(CN2CCC3(CC2)CC(Oc2ccc4c(c2)C(=O)N(C2CCC(=O)NC2=O)C4)C3)CC1 (stereo not drawn) [Compound D287]
< 10	COc1cc2c(-c3cc(OC)c(CN4CCC(c5ccc6c(c5)C(=O)N(C5CCC(=O)NC5=O)C6)CC4)c(OC)c3)cn(C)c(=O)c2cn1 (stereo not drawn) [Compound D288]
< 10	COc1cc2c(-c3cc(OC)c(CN4CCC(CN5CCC6(CC5)CN(c5ccc7c(c5)C(=O)N(C5CCC(=O)NC5=O)C7)C6)CC4)c(OC)c3)cn(C)c(=O)c2cn1 (stereo not drawn) [Compound D289]
< 10	COc1cc(-c2cn(C)c(=O)c3cnc(N4CCC4)cc23)cc(OC)c1CN1CCN(c2ccc3c(c2)C(=O)N(C2CCC(=O)NC2=O)C3)CC1(C)C (stereo not drawn) [Compound D290]
< 10	COc1cc(-c2cn(C)c(=O)c3cnc(N4CC(F)(F)C4)cc23)cc(OC)c1CN1CCC(CN2CCC3(CC2)CN(c2ccc4c(c2)C(=O)N(C2CCC(=O)NC2=O)C4)C3)CC1 (stereo not drawn) [Compound D291]
< 10	COc1cc2c(-c3cc(OC)c(CN4CCN(c5ccc6c(c5)C(=O)N(C5CCC(=O)NC5=O)C6)CC4C)c(OC)c3)cn(C)c(=O)c2cn1 (stereo not drawn) [Compound D293]
< 10	COc1cc(-c2cn(C)c(=O)c3cnc(N4CCC4)cc23)cc(OC)c1C1CCN(c2ccc3c(c2)C(=O)N(C2CCC(=O)NC2=O)C3)CC1 (stereo not drawn) [Compound D294]
< 10	COc1cc2c(-c3cc(OC)c(C4CCN(c5ccc6c(c5)C(=O)N(C5CCC(=O)NC5=O)C6)CC4)c(OC)c3)cn(C)c(=O)c2cn1 (stereo not drawn) [Compound D295]
< 10	COc1cc(-c2cn(C)c(=O)c3cnc(N(C)C)cc23)cc(OC)c1CN1CCC(c2ccc3c(c2)C(=O)N(C2CCC(=O)NC2=O)C3)CC1 (stereo not drawn) [Compound D296]
< 10	COc1cc(-c2cn(C)c(=O)c3cnc(N(C)C)cc23)cc(OC)c1CN1CCC(c2ccc3c(c2)CN(C2CCC(=O)NC2=O)C3=O)CC1 (stereo not drawn) [Compound D297]
